Read-outs that look alike come from different tables or passages of the source.
Key:
reactive oxygen species = type: cell-based, mouse
mtOXPHOS transcripts = type: cell-based, mouse
[1] = test system: mitochondrial membrane potential; type: cell-based, mouse
nuOXPHOS transcripts = type: cell-based, mouse
[2] = test system: cellular dehydrogenase activity
OXPHOS gene expression = type: cell-based, mouse
cytochrome c = type: cell-based, mouse
[3] = composite Z-score vs DMSO, Conc 20 μM
[4] = 20 μM, composite Z-score vs DMSO
[5] = Conc 20 μM, normalized score vs mock-treated (DMSO) wells
[6] = normalized composite Z-score vs mock-treated (DMSO) wells, Conc 20 μM
[7] = composite Z-score vs mock-treated (DMSO) wells, Conc 20 μM
[8] = Table 7, C2C12 myotubes, 48 h, composite Z-score

SMILES	ROS (reactive oxygen species; [3])	Viability (C2C12 myotubes; [3])	mitoOX (mtOXPHOS transcripts; [3])	ΔΨm [1, 3]	nucOX (nuOXPHOS transcripts; [3])	MTT [2, 3]	GE-HTS (OXPHOS gene expression; [3])	cyt c (cytochrome c; [3])	ROS (reactive oxygen species; [6])	Viability (C2C12 myotubes; [6])	mitoOX (mtOXPHOS transcripts; [6])	ΔΨm [1, 6]	nucOX (nuOXPHOS transcripts; [6])	MTT [2, 6]	GE-HTS (OXPHOS gene expression; [6])	cyt c (cytochrome c; [6])	also measured
Cc1ccc(/N=C/N(C)/C=N/c2ccc(C)cc2C)c(C)c1 [amitraz]	0.867	−1.025	−0.814	−0.741	−0.299	−1.572	−0.526	0.292	–	–	–	–	–	–	–	–	–
CCN(CC)Cc1cc(Nc2ccnc3cc(Cl)ccc23)ccc1O [amodiaquine]	–	–	–	–	–	–	–	–	–	–	–	–	–	–	–	–	ROS (reactive oxygen species; [4]): 0.877; Viability (C2C12 myotubes; [4]): −0.547; mitoOX (mtOXPHOS transcripts; [4]): 0.481; ΔΨm [1, 4]: −1.178; nucOX (nuOXPHOS transcripts; [4]): 0.317; MTT [2, 4]: −1.008; GE-HTS (OXPHOS gene expression; [4]): 0.398; cyt c (cytochrome c; [4]): −0.008
N=c1ccn2c(n1)O[C@H]1[C@H](O)[C@@H](CO)O[C@H]12 [ancitabine]	–	–	–	–	–	–	–	–	–	–	–	–	–	–	–	–	ROS (composite Z-score) (reactive oxygen species; [5]): −0.189; Viability (composite Z-score) (C2C12 myotubes; [5]): −0.655; mitoOX (composite Z-score) (mtOXPHOS transcripts; [5]): −0.726; ΔΨm (composite Z-score) [1, 5]: −0.986; nucOX (composite Z-score) (nuOXPHOS transcripts; [5]): −1.182; MTT (composite Z-score) [2, 5]: −2.731; GE-HTS (composite Z-score) (OXPHOS gene expression; [5]): −1.115; cyt c (composite Z-score) (cytochrome c; [5]): −0.158
C=C1CC[C@@H]2[C@](C)(CO)[C@H](O)CC[C@@]2(C)[C@@H]1C/C=C1/C(=O)OC[C@H]1O [andrographolide]	–	–	–	–	–	–	–	–	−1.813	−0.686	−2.361	−0.165	−0.698	−0.901	−1.323	−0.044	–
C[C@]12C=CC(=O)C=C1CC[C@@H]1[C@@H]2CC[C@]2(C)C(=O)CC[C@@H]12 [androsta-1,4-dien-3,17-dione]	0.068	0.162	−0.189	0.152	−0.143	−0.500	−0.180	0.261	–	–	–	–	–	–	–	–	–
C=C1[C@@H]2CC[C@@]3(C)[C@H](c4ccoc4)OC(=O)C[C@]13O[C@H]1CC(=O)C(C)(C)[C@H](CC(=O)OC)[C@]12C [angolensic acid, methyl ester]	–	–	–	–	–	–	–	–	–	–	–	–	–	–	–	–	ROS (reactive oxygen species; [7]): 0.465; Viability (C2C12 myotubes; [7]): 1.019; mitoOX (mtOXPHOS transcripts; [7]): 0.813; ΔΨm [1, 7]: 0.163; nucOX (nuOXPHOS transcripts; [7]): 0.729; MTT [2, 7]: 0.322; GE-HTS (OXPHOS gene expression; [7]): 0.827; cyt c (cytochrome c; [7]): −0.204
COc1ccc2c(=O)c(CC(=O)O)coc2c1 [anhydrobrazilic acid, reference compound]	–	–	–	–	–	–	–	–	0.388	−0.072	1.678	−0.353	1.559	−1.007	1.730	0.579	mito-OXPHOS Z (mtOXPHOS transcripts; [8]): 1.68; nucOXPHOS Z (nuOXPHOS transcripts; [8]): 1.56
O[C@H]1[C@H](O)[C@@H](O)C2OC[C@H]1O2 [anhydroglucose]	0.238	0.168	−0.745	−0.480	0.322	0.041	−0.046	0.688	–	–	–	–	–	–	–	–	–
CC1=C(/C=C/C(C)=C/C=C/C(C)=C/C=C/C=C(C)/C=C/C=C(C)/C=C/[C@@]23O[C@]2(C)C[C@@H](O)CC3(C)C)C(C)(C)C[C@H](O)C1 [antheraxanthin]	–	–	–	–	–	–	–	–	0.244	−0.496	−0.011	−0.305	0.026	−0.804	0.013	−0.206	–
O=c1cc(-c2ccc(O)cc2)oc2cc(O[C@@H]3O[C@H](CO)[C@@H](O)[C@H](O)[C@H]3O[C@@H]3OC[C@](O)(CO)[C@H]3O)cc(O)c12 [apiin]	0.322	−0.631	0.250	0.029	−0.150	−1.444	−0.032	−0.697	–	–	–	–	–	–	–	–	–

Source: patent publication US20090143279A1 (priority 2007, published 2009)
